Columns and labels:
[1] = tested on: green peach aphid (Myzus persicae Sulzer); assay: Test B: nymph production by green peach aphid after 24 hours exposure on treated radish plants; format: in vivo; settings: for Living (%) / On plant (%): 1 DAT; for Living (%): all aphids alive 24 h after treatment; for On plant (%): all aphids on the treated plant; for No. of nymphs (mean ± SE): per adult
Method: For evaluating reproductive performance effects on green peach aphid (Myzus persicae Sulzer), each test unit consisted of a radish plant grown in a 6 cm×6 cm square pot infested with a mixed population (nymphs and adults) of green peach aphids from a laboratory-reared culture. Each plant was infested with about 100 aphids. Test solutions were prepared and sprayed on the test plants (2 plants per treatment) as described for TEST A. Treatments included Compound 1 at 100 and 500 ppm, Compound 2 at 4 and 6 ppm, and a control without test compound.
Aphids were kept on the treated plants for 24 hours, and then only adult aphids staying on the treated plant were transferred to untreated radish plants grown singly in a 6 cm×6 cm square pots. One test unit or one replicate consisted of a single adult aphid on a radish plant in a pot. The number of nymphs in each replicate was counted 4 and 6 days after treatment. At the higher concentration of each test compound a total of 45 replicates were used, and at the lower concentration of each test compound a total of 30 replicates were used. In addition, prior to transferring aphids singly to the untreated radish plants one day after treatment (1 DAT), the total number of aphids living and those remaining on the treated plant were counted.
The results are listed in Table B. Square-root transformation was done on the number of nymphs produced per adult (female) aphid, and the data were analyzed using analysis of variance (ANOVA) and Fisher's Least Significant Difference (LSD) tests for separation of means.

[2] = tested on: cotton bollworm (Helicoverpa armigera Hübner); assay: Test H: eggs laid and hatched by treated cotton bollworm adults; format: in vivo; settings: for No. of eggs hatched / No. of eggs laid: total; for No. of eggs hatched: counted daily for 10 DAT; for No. of eggs laid: counted daily for about 10 days
Source text: For evaluating the reproductive performance effects on cotton bollworm (Helicoverpa armigera Hübner), each test unit consisted of one pair of adult (female and male) Helicoverpa armigera moths. To obtain the adult moths, male and female pupae of approximately the same age (±1 day) were placed in separate containers until adults emerged. After emergence, adult moths of about the same age (±1 day) were selected for testing. Ten adult moths of the same sex were placed in a cage containing a potted cotton plant in a […] container covered with sleeve of fine-mesh polyester material. Then the cages were sprayed over the top with designated treatments of the test compounds using a CO2 sprayer fitted with a flat fan nozzle, calibrated to deliver about 200 mL (500 L/ha) of spray at a spray pressure of 207 kPa. The spray nozzle was placed 60 cm above the top of the cages.
Sub-lethal rates of Compound 1 on cotton bollworm were estimated based on a preliminary dose-response curve using rates of 10, 25, 50, 80 and 100 ppm. […] Three treatments consisted of test solutions containing Compound 1 at 10, 20 and 30 ppm as well as a control sprayed with water without test compound.
The treated adult moths were transferred individually into a clean container made of a clear plastic cup covered with cloth and supplied with a cotton wick soaked in 10% sucrose solution as adult diet source. Each treatment used 10 adult females and 10 adult males (i.e. 10 replicates per treatment). One day after treatment, a pair of treated adults (male and female) were placed together in a cage made of a 300 mL clear plastic cup with screened cloth cover and containing a source of adult diet, allowing the moths to copulate. Each pair of moths was transferred to a new cup daily. The number of eggs laid was counted daily for about 10 days (which is the period during which female moths typically produce viable eggs) and totaled. To evaluate the viability of eggs, the copulation cages containing eggs were stored in a growth chamber at 24-27° C. with 14 hours of light per day and 70% relative humidity.

Q: Which results are given for `CNC(=O)c1cc(Cl)cc(C)c1NC(=O)c1cc(Br)nn1-c1ncccc1Cl` [Compound 1, 3-bromo-N-[4-chloro-2-methyl-6-[(methylamino)carbonyl]phenyl]-1-(3-chloro-2-pyridinyl)-1H-pyrazole-5-carboxamide]?
A: Living (%) ([1]; 100 ppm): 99.9%; On plant (%) ([1]; 100 ppm): 99.6%; No. of nymphs (mean ± SE) ([1]; 100 ppm, 4 DAT): 3.5 ± 0.3 b; No. of nymphs (mean ± SE) ([1]; 100 ppm, 6 DAT): 7.3 ± 0.4 a; Living (%) ([1]; 500 ppm): 99.6%; On plant (%) ([1]; 500 ppm): 99.9%; No. of nymphs (mean ± SE) ([1]; 500 ppm, 4 DAT): 4.6 ± 0.3 a; No. of nymphs (mean ± SE) ([1]; 500 ppm, 6 DAT): 8.1 ± 0.5 a; number of eggs hatched as compared to controls ([2]; 10, 20 and 30 ppm): progressively substantially decrease the number of eggs hatched; number of eggs laid as compared to controls ([2]; 10, 20 and 30 ppm): did not consistently reduce the number of eggs laid; No. of eggs hatched ([2]; 10 ppm): 977; No. of eggs laid ([2]; 10 ppm): 3412; No. of eggs hatched ([2]; 20 ppm): 778; No. of eggs laid ([2]; 20 ppm): 1180; No. of eggs hatched ([2]; 30 ppm): 84; No. of eggs laid ([2]; 30 ppm): 4920
